Assay results as given in patent US11111259B2, “Acylsulfonamide derivatives for treating senescence-associated diseases and disorders” (Unity Biotechnology, Inc., priority 2015, dated 2021).
Each block holds one molecule with its values, some of them ahead of it.

Columns and labels:
BCL-xL = BCL-xL (Homo sapiens, UniProt Q07817); assay: BCL-binding assay (AlphaLISA competition, BAD peptide); settings: 6xHis BCL-xL with biotinylated BAD peptide, 24 hr incubation
Procedure: (§1) Compounds were prepared as 400× DMSO stock solutions in a 1:4 dilution series then diluted […] in assay buffer (25 mM HEPES pH 7.5, 100 mM NaCl, 0.1% BSA, 0.005% Tween) immediately before use. Aliquots of 400 nM 6xHis-tagged BCL-xL, BCL-2, and BCL-w were thawed on ice and diluted to 0.4 (BCL-XL) or 0.8 (BCL-W and 2) nM in assay buffer. Aliquots of biotinylated BIM and BAD peptides were diluted in assay buffer to 120 and 60 nM respectively. Ten microliters of biotinylated peptide were added to wells of a 96-well PCR plate, followed by ten microliters of inhibitor, then ten microliters of BCL protein, BCL-XL with BAD and BCL-W/2 with BIM. The plates were sealed and incubated at room temperature. After 24 hr, 0.16 μg Anti-His conjugated AlphaLISA acceptor beads were added in 5 μL assay buffer. After one hour at room temperature, 0.16 μg AlphaScreen streptavidin donor beads were added in 5 μL assay buffer and plates were incubated an additional 30 min in the dark. Two 17 μL aliquots of each reaction were plated in a Perkin Elmer 384-well proxiplate, and plates were scanned for using a Perkin Elmer Enspire plate reader. Kd values were calculated in Prism Graph Pad using a one site competitive binding model and previously determined Kd values for each protein peptide pair. […]

BCL-w = target: T1, BCL-w (Homo sapiens, UniProt Q92843); assay: BCL-binding assay (AlphaLISA competition, BIM peptide); settings: 6xHis BCL-w with biotinylated BIM peptide, 24 hr incubation
T1 sequence (Q92843 1-193): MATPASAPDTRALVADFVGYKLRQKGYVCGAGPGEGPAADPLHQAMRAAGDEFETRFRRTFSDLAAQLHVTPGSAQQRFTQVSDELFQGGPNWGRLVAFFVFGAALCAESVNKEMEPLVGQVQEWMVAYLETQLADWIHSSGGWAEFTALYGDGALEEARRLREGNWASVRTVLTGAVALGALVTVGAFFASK
Procedure: as §1

BCL-2 = BCL-2 (Homo sapiens, UniProt P10415); assay: as above; settings: 6xHis BCL-2 with biotinylated BIM peptide, 24 hr incubation
Chain of BCL-2 (P10415 whole entry, species assumed): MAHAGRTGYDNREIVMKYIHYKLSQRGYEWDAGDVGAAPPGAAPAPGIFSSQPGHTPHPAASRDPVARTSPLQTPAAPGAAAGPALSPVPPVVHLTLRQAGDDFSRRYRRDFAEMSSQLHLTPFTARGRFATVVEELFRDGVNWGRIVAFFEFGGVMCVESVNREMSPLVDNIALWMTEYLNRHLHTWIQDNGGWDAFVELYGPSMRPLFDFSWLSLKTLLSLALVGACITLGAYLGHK
Procedure: as §1

[1] = test system: IMR-90 SnC (irradiated senescent IMR90 cells); assay: Senolysis assay (CellTiter-Glo viability); format: cell-based, human; settings: for EC50: Homo sapiens, IMR-90, light or radiation study, 72 h, X-ray irradiated senescent IMR90 cells, viability three days after compound addition; for SI (ratio of EC50 of non-senescent cells to EC50 of senescent cells): IMR90 non-senescent vs senescent cells
Procedure: IMR90 cells are maintained in DMEM supplemented with 10% FBS. To prepare a senescent population, cells were trypsinized, diluted to 50,000 per mL, and irradiated with 10-15 Gy of X-ray irradiation. Irradiated cells were plated at 5000 cells per well in one third of a 96-well plate and maintained for two weeks prior to the assay. Four days prior to the assay, non-senescent IMR90s were plated at 2500 per well in the second third of the plate. One day prior to the assay, 2500 non-senescent cells were plated in the final third of the plate. Compounds were prepared as a 200×DMSO dilution series then diluted to 1× in media immediately before adding to cells. Three days after compound addition, cell viability was measured using CellTiter-Glo reagent from Promega. Viability was calculated relative to a DMSO control and EC50 values are calculated in Prism GraphPad. […] The selectivity (SI) of the compounds described herein is a ratio of the EC50 of non-senescent cells to the EC50 of senescent cells. The SI of the compounds described herein is 10 or above for “A” selectivity, between 2 and 10 for “B” selectivity or 2 or less for “C” selectivity.

Chain of BCL-xL (Q07817 whole entry, species assumed): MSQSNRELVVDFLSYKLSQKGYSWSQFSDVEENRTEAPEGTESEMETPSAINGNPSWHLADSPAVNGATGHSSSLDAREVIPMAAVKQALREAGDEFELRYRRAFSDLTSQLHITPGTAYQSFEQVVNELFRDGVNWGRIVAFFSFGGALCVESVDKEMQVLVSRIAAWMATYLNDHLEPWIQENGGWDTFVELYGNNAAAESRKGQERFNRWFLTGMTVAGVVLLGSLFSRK

Structure (SMILES): CCOP(=O)(O)CCCN1CCN(CC[C@H](CSc2ccccc2)Nc2ccc(S(=O)(=O)NC(=O)c3ccc(N4CCN(CC5=C(c6ccc(Cl)cc6)CCC(C)(C)C5)CC4)cc3)cc2S(=O)(=O)C(F)(F)F)CC1 [Compound 31]
Kd (BCL-xL): < 1 nM
Kd (BCL-w): 1 to 10 nM
Kd (BCL-2): < 1 nM
EC50 [1]: > 10000 nM

Kd (BCL-xL): < 1 nM
Kd (BCL-w): 10 to 50 nM
Kd (BCL-2): < 1 nM
Structure (SMILES): CC1(C)CCC(c2ccc(Cl)cc2)=C(CN2CCN(c3ccc(C(=O)NS(=O)(=O)c4ccc(N[C@H](CCN5CCN(CCCP(=O)(O)O)CC5)CSc5ccccc5)c(S(=O)(=O)C(F)(F)F)c4)cc3)CC2)C1 [Compound 32]
EC50 [1]: > 10000 nM

Structure (SMILES): CCOP(=O)(CCCN1CCN(CC[C@H](CSc2ccccc2)Nc2ccc(S(=O)(=O)NC(=O)c3ccc(N4CCN(CC5=C(c6ccc(Cl)cc6)CCC(C)(C)C5)CC4)cc3)cc2S(=O)(=O)C(F)(F)F)CC1)OCOC(=O)C(C)(C)C (some centres unmarked) [Compound 33]
Kd (BCL-xL): < 1 nM
Kd (BCL-w): 1 to 10 nM
Kd (BCL-2): < 1 nM
EC50 [1]: > 10000 nM
SI (ratio of EC50 of non-senescent cells to EC50 of senescent cells) [1]: B (between 2 and 10)

Structure (SMILES): CCOP(=O)(CN1CCN(CC(CSc2ccccc2)Nc2ccc(S(=O)(=O)NC(=O)c3ccc(N4CCN(CC5=C(c6ccc(Cl)cc6)CCC(C)(C)C5)CC4)cc3)cc2S(=O)(=O)C(F)(F)F)CC1)OCC (centres unmarked) [Compound 34]
Kd (BCL-xL): 1 to 10 nM
Kd (BCL-w): > 50 nM
Kd (BCL-2): < 1 nM
EC50 [1]: > 10000 nM
SI (ratio of EC50 of non-senescent cells to EC50 of senescent cells) [1]: C (2 or less)

Structure (SMILES): CCOP(=O)(CCN1CCN(CC(CSc2ccccc2)Nc2ccc(S(=O)(=O)NC(=O)c3ccc(N4CCN(CC5=C(c6ccc(Cl)cc6)CCC(C)(C)C5)CC4)cc3)cc2S(=O)(=O)C(F)(F)F)CC1)OCC (centres unmarked) [Compound 35, Diethyl (2-(4-(2-((4-(N-(4-(4-((4′-chloro-4,4-dimethyl-3,4,5,6-tetrahydro-[1,1′-biphenyl]-2-yl)methyl)piperazin-1-yl)benzoyl)sulfamoyl)-2-((trifluoromethyl)sulfonyl)phenyl)amino)-3-(phenylthio)propyl)piperazin-1-yl)ethyl)phosphonate]
Kd (BCL-xL): 1 to 10 nM
Kd (BCL-w): > 50 nM
Kd (BCL-2): < 1 nM
EC50 [1]: 1000 to 10000 nM
SI (ratio of EC50 of non-senescent cells to EC50 of senescent cells) [1]: C (2 or less)

Structure (SMILES): CCOP(=O)(CCCN1CCN(CC[C@H](CSc2ccccc2)Nc2ccc(S(=O)(=O)NC(=O)c3ccc(N4CCN(CC5=C(c6ccc(Cl)cc6)CCC(C)(C)C5)CC4)cc3)cc2S(=O)(=O)C(F)(F)F)CC1)OCOC(=O)OC(C)C (some centres unmarked) [Compound 36]
Kd (BCL-xL): < 1 nM
Kd (BCL-w): 10 to 50 nM
Kd (BCL-2): < 1 nM
EC50 [1]: 1000 to 10000 nM
SI (ratio of EC50 of non-senescent cells to EC50 of senescent cells) [1]: B (between 2 and 10)

Structure (SMILES): CCOP(=O)(CCCN1CCN(CC[C@H](CSc2ccccc2)Nc2ccc(S(=O)(=O)NC(=O)c3ccc(N4CCN(CC5=C(c6ccc(Cl)cc6)CCC(C)(C)C5)CC4)cc3)cc2S(=O)(=O)C(F)(F)F)CC1)OCOC(C)=O (some centres unmarked) [Compound 37]
Kd (BCL-xL): < 1 nM
Kd (BCL-w): 1 to 10 nM
Kd (BCL-2): < 1 nM
EC50 [1]: 1000 to 10000 nM
SI (ratio of EC50 of non-senescent cells to EC50 of senescent cells) [1]: B (between 2 and 10)

Structure (SMILES): CCOP(=O)(CCN1CCN(CC[C@H](CSc2ccccc2)Nc2ccc(S(=O)(=O)NC(=O)c3ccc(N4CCN(CC5=C(c6ccc(Cl)cc6)CCC(C)(C)C5)CC4)cc3)cc2S(=O)(=O)C(F)(F)F)CC1)OCOC(=O)C(C)(C)C (some centres unmarked) [Compound 38]
Kd (BCL-xL): < 1 nM
Kd (BCL-w): 10 to 50 nM
Kd (BCL-2): < 1 nM
EC50 [1]: 1000 to 10000 nM
SI (ratio of EC50 of non-senescent cells to EC50 of senescent cells) [1]: A (10 or above)

Structure (SMILES): CCOP(=O)(CN1CCN(CC[C@H](CSc2ccccc2)Nc2ccc(S(=O)(=O)NC(=O)c3ccc(N4CCN(CC5=C(c6ccc(Cl)cc6)CCC(C)(C)C5)CC4)cc3)cc2S(=O)(=O)C(F)(F)F)CC1)OCOC(=O)OC(C)C (stereo partly drawn) [Compound 39, [[4-[(3R)-3-[4-[[4-[4-[[2-(4-Chlorophenyl)-5,5-dimethyl-cyclohexen-1-yl]methyl]piperazin-1-yl]benzoyl]sulfamoyl]-2-(trifluoromethylsulfonyl)anilino]-4-phenylsulfanyl-butyl]piperazin-1-yl]methyl-ethoxy-phosphoryl]oxymethyl isopropyl carbonate]
Kd (BCL-xL): < 1 nM
Kd (BCL-w): 10 to 50 nM
Kd (BCL-2): < 1 nM
EC50 [1]: < 1000 nM
SI (ratio of EC50 of non-senescent cells to EC50 of senescent cells) [1]: A (10 or above)

Kd (BCL-xL): < 1 nM
Kd (BCL-w): 10 to 50 nM
Kd (BCL-2): < 1 nM
Structure (SMILES): CC1(C)CCC(c2ccc(Cl)cc2)=C(CN2CCN(c3ccc(C(=O)NS(=O)(=O)c4ccc(N[C@H](CCN5CCN(CCCP(=O)(OCOC(=O)C(C)(C)C)OCOC(=O)C(C)(C)C)CC5)CSc5ccccc5)c(S(=O)(=O)C(F)(F)F)c4)cc3)CC2)C1 [Compound 40]
EC50 [1]: > 10000 nM
SI (ratio of EC50 of non-senescent cells to EC50 of senescent cells) [1]: B (between 2 and 10)

Structure (SMILES): CCOP(=O)(C=C1CCN(CC[C@H](CSc2ccccc2)Nc2ccc(S(=O)(=O)NC(=O)c3ccc(N4CCN(CC5=C(c6ccc(Cl)cc6)CCC(C)(C)C5)CC4)cc3)cc2S(=O)(=O)C(F)(F)F)CC1)OCC [Compound 41, Diethyl (R)-((1-(3-((4-(N-(4-(4-((4′-chloro-4,4-dimethyl-3,4,5,6-tetrahydro-[1,1′-biphenyl]-2-yl)methyl)piperazin-1-yl)benzoyl)sulfamoyl)-2-((trifluoromethyl)sulfonyl)phenyl)amino)-4-(phenylthio)butyl)piperidin-4-ylidene)methyl)phosphonate]
Kd (BCL-xL): < 1 nM
Kd (BCL-w): 1 to 10 nM
Kd (BCL-2): < 1 nM
EC50 [1]: < 1000 nM
SI (ratio of EC50 of non-senescent cells to EC50 of senescent cells) [1]: A (10 or above)

Kd (BCL-xL): 1 to 10 nM
Kd (BCL-w): 10 to 50 nM
Kd (BCL-2): < 1 nM
Structure (SMILES): CC1(C)CCC(c2ccc(Cl)cc2)=C(CN2CCN(c3ccc(C(=O)NS(=O)(=O)c4ccc(N[C@H](CCN5CCN(CCP(=O)(OCOC(=O)C(C)(C)C)OCOC(=O)C(C)(C)C)CC5)CSc5ccccc5)c(S(=O)(=O)C(F)(F)F)c4)cc3)CC2)C1 [Compound 43, (R)-(((2-(4-(3-((4-(N-(4-(4-((4′-chloro-4,4-dimethyl-3,4,5,6-tetrahydro-[1,1′-biphenyl]-2-yl)methyl)piperazin-1-yl)benzoyl)sulfamoyl)-2-((trifluoromethyl)sulfonyl)phenyl)amino)-4-(phenylthio)butyl)piperazin-1-yl)ethyl)phosphoryl)bis(oxy))bis(methylene) bis(2,2-dimethylpropanoate)]
EC50 [1]: > 10000 nM

Structure (SMILES): CCOP(=O)(CN1CCN(CC[C@H](C[S+]([O-])c2ccccc2)Nc2ccc(S(=O)(=O)NC(=O)c3ccc(N4CCN(CC5=C(c6ccc(Cl)cc6)CCC(C)(C)C5)CC4)cc3)cc2S(=O)(=O)C(F)(F)F)CC1)OCC (stereo partly drawn) [Compound 44, Diethyl ((4-((3R)-3-((4-(N-(4-(4-((4′-chloro-4,4-dimethyl-3,4,5,6-tetrahydro-[1,1′-biphenyl]-2-yl)methyl)piperazin-1-yl)benzoyl)sulfamoyl)-2-((trifluoromethyl)sulfonyl)phenyl)amino)-4-(phenylsulfinyl)butyl)piperazin-1-yl)methyl)phosphonate]
Kd (BCL-xL): < 1 nM
Kd (BCL-w): 10 to 50 nM
Kd (BCL-2): < 1 nM
EC50 [1]: 1000 to 10000 nM
SI (ratio of EC50 of non-senescent cells to EC50 of senescent cells) [1]: B (between 2 and 10)
